Measurements as given in patent US9708334B2, “Substituted 2,4,5,6-tetrahydropyrrolo[3,4-c]pyrazole and 4,5,6,7-tetrahydro-2H-pyrazolo[4,3-c]pyridine compounds as GlyT1 inhibitors” (DART NEUROSCIENCE (CAYMAN) LTD., priority 2014, dated 2017).

target: T1, GlyT1 (Homo sapiens, UniProt P48067); assay: Glycine Transporter 1 (GlyT1) uptake assay, scintillation proximity assay of [14C]-glycine uptake; format: cell-based; conditions: SPA, four parameter logistic fit, read-out: GlyT1 (pIC50) (converted)
T1 construct: expressed in transfected cells
T1 sequence (P48067 1-706): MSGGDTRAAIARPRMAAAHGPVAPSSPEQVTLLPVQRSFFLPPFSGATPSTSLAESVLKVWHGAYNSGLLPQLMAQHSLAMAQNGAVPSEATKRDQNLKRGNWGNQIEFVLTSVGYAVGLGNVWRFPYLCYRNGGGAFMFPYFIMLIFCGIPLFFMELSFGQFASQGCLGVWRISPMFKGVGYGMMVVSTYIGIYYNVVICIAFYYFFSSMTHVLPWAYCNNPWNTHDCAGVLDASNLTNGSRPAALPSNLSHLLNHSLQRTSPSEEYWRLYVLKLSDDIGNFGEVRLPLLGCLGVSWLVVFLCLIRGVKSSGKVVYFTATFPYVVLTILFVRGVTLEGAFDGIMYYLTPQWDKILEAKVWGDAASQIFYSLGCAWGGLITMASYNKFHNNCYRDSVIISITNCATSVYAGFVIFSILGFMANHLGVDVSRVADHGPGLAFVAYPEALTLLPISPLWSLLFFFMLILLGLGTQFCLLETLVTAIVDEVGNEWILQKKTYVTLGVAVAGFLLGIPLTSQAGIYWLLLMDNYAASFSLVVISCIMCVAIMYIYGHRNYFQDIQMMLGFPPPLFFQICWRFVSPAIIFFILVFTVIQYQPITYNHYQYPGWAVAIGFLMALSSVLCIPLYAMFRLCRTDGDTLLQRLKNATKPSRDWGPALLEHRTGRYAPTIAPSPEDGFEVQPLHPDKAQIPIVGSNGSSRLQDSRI
How it was run: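 IC50 values derive from four-parameter logistic curves fitted to dose-response data. Uptake of [14C]-glycine measured in scintillation proximity format.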

SMILES | IC50 [nM]
COc1ccc(-n2cc3c(n2)CCN(C(=O)c2c(OC(C)C(F)(F)F)ccc(C#N)c2Cl)C3)cc1 (stereo not drawn) [Example 206, 2-Chloro-3-[2-(4-methoxyphenyl)-2H 4H 5H 6H 7H-pyrazolo[4,3-c]pyridine-5-carbonyl]-4-[(1 1 1-trifluoropropan-2-yl)oxy]benzonitrile] | 100 to 1000
CCC(F)(CC)c1ccc(C#N)c(OC)c1C(=O)N1CCc2nn(-c3ccc(F)cc3)cc2C1 [Example 208] | 1000 to 10000
COc1c(C#N)ccc(OC(C)C(F)(F)F)c1C(=O)N1CCc2c(cnn2-c2ccc(F)cn2)C1 (stereo not drawn) [Example 209, 3-[1-(5-Fluoropyridin-2-yl)-1H 4H 5H 6H 7H-pyrazolo[4,3-c]pyridine-5-carbonyl]-2-methoxy-4-[(1 1 1-trifluoropropan-2-yl)oxy]benzonitrile] | < 100
CC(Oc1ccc(C#N)c(Cl)c1C(=O)N1CCc2c(cnn2-c2ccc(F)cn2)C1)C(F)(F)F (stereo not drawn) [Example 210, 2-Chloro-3-[1-(5-fluoropyridin-2-yl)-1H 4H 5H 6H 7H-pyrazolo[4,3-c]pyridine-5-carbonyl]-4-[(1 1 1-trifluoropropan-2-yl)oxy]benzonitrile] | < 100
CC(Oc1ccc(C#N)c(Cl)c1C(=O)N1CCc2nn(-c3cccnc3)cc2C1)C(F)(F)F (stereo not drawn) [Example 211, 2-Chloro-3[2-(pyridin-3-yl)-2H 4H 5H 6H 7H-pyrazolo[4,3-c]pyridine-5-carbonyl]-4-[(1 1 1-trifluoropropan-2-yl)oxy]benzonitrile] | 100 to 1000
COc1c(C#N)ccc(C2(F)CCC2)c1C(=O)N1CCc2nn(-c3ccc(F)cn3)cc2C1 [Example 212, 4-(1-Fluorocyclobutyl)-3-[2-(5-fluoropyridin-2-yl)-2H 4H 5H 6H 7H-pyrazolo[4,3-c]pyridine-5-carbonyl]-2-methoxybenzonitrile] | 100 to 1000
COc1c(C#N)ccc(OC(C)C(F)(F)F)c1C(=O)N1CCc2nn(-c3cccnc3)cc2C1 (stereo not drawn) [Example 213, 2-Methoxy-3-[2-(pyridin-3-yl)-2H 4H 5H 6H 7H-pyrazolo[4,3-c]pyridine-5-carbonyl]-4-[(1 1 1-trifluoropropan-2-yl)oxy]benzonitrile] | < 100
CC(Oc1ccc(C#N)c(Cl)c1C(=O)N1CCc2nn(-c3ccccn3)cc2C1)C(F)(F)F (stereo not drawn) [Example 216, 2-Chloro-3-[2-(pyridin-2-yl)-2H 4H 5H 6H 7H-pyrazolo[4,3-c]pyridine-5-carbonyl]-4-[(1 1 1-trifluoropropan-2-yl)oxy]benzonitrile] | 100 to 1000
COc1c(C#N)ccc(OC(C)C(F)(F)F)c1C(=O)N1CCc2nn(-c3ccccn3)cc2C1 (stereo not drawn) [Example 217, 2-Methoxy-3-[2-(pyridin-2-yl)-2H 4H 5H 6H 7H-pyrazolo[4,3-c]pyridine-5-carbonyl]-4-[(1 1 1-trifluoropropan-2-yl)oxy]benzonitrile] | 100 to 1000
COc1c(C#N)ccc(OC(C)C(F)(F)F)c1C(=O)N1CCc2c(cnn2-c2cccnc2)C1 (stereo not drawn) [Example 218, 2-Methoxy-3-[1-(pyridin-3-yl)-1H 4H 5H 6H 7H-pyrazolo[4,3-c]pyridine-5-carbonyl]-4-[(1 1 1-trifluoropropan-2-yl)oxy]benzonitrile] | < 100
CC(Oc1ccc(C#N)c(Cl)c1C(=O)N1CCc2nn(-c3ccncc3)cc2C1)C(F)(F)F (stereo not drawn) [Example 219, 2-Chloro-3-[2-(pyridin-4-yl)-2H 4H 5H 6H 7H-pyrazolo[4,3-c]pyridine-5-carbonyl]-4-[(1 1 1-trifluoropropan-2-yl)oxy]benzonitrile] | < 100
C[C@H](Oc1ccc(C#N)c(Cl)c1C(=O)N1CCc2nn(-c3ccc(F)cn3)cc2C1)C(F)(F)F [Example 222, 2-Chloro-3-[2-(5-fluoropyridin-2-yl)-2H 4H 5H 6H 7H-pyrazolo[4,3-c]pyridine-5-carbonyl]-4-{[(2S)-1 1 1-trifluoropropan-2-yl]oxy}benzonitrile] | 100 to 1000
N#Cc1ccc(OCC(F)(F)F)c(C(=O)N2CCc3nn(-c4ccc(F)cc4)cc3C2)c1Cl [Example 223, 2-Chloro-3-[2-(4-fluorophenyl)-2H 4H 5H 6H 7H-pyrazolo[4,3-c]pyridine-5-carbonyl]-4-(2 2 2-trifluoroethoxy)benzonitrile] | 1000 to 10000
N#Cc1ccc(OCC(F)(F)F)c(C(=O)N2CCc3nn(-c4ccc(F)cn4)cc3C2)c1Cl [Example 224, 2-Chloro-3-[2-(5-fluoropyridin-2-yl)-2H 4H 5H 6H 7H-pyrazolo[4,3-c]pyridine-5-carbonyl]-4-(2 2 2-trifluoroethoxy)benzonitrile] | 1000 to 10000
COc1c(C#N)ccc(O[C@@H](C)C(F)(F)F)c1C(=O)N1CCc2nn(-c3ccc(F)cn3)cc2C1 [Example 225, 3-[2-(5-Fluoropyridin-2-yl)-2H 4H 5H 6H 7H-pyrazolo[4,3-c]pyridine-5-carbonyl]-2-methoxy-4-{[(2S)-1 1 1-trifluoropropan-2-yl]oxy}benzonitrile] | 100 to 1000
COc1c(C#N)ccc(OC(C)C(F)(F)F)c1C(=O)N1CCc2nn(-c3ccnc(C)c3)cc2C1 (stereo not drawn) [Example 227, 2-Methoxy-3-[2-(2-methylpyridin-4-yl)-2H 4H 5H 6H 7H-pyrazolo[4,3-c]pyridine-5-carbonyl]-4-[(1 1 1-trifluoropropan-2-yl)oxy]benzonitrile] | < 100
CC(Oc1ccc(C#N)c(Cl)c1C(=O)N1CCc2nn(-c3ccc(Cl)cn3)cc2C1)C(F)(F)F (stereo not drawn) [Example 228, 2-Chloro-3-[2-(5-chloropyridin-2-yl)-2H 4H 5H 6H 7H-pyrazolo[4,3-c]pyridine-5-carbonyl]-4-[(1 1 1-trifluoropropan-2-yl)oxy]benzonitrile] | 100 to 1000

The next lines start with the values.

IC50 [nM] | SMILES
1000 to 10000 | CC(Oc1ccc(C#N)c(Cl)c1C(=O)N1CCc2nn(C)cc2C1)C(F)(F)F (stereo not drawn) [Example 203, 2-Chloro-3-{2-methyl-2H 4H 5H 6H 7H-pyrazolo[4,3-c]pyridine-5-carbonyl}-4-[(1 1 1-trifluoropropan-2-yl)oxy]benzonitrile]
100 to 1000 | COc1c(C#N)ccc(OC(C)C(F)(F)F)c1C(=O)N1CCc2nn(C)cc2C1 (stereo not drawn) [Example 204, 2-Methoxy-3-{2-methyl-2H 4H 5H 6H 7H-pyrazolo[4,3-c]pyridine-5-carbonyl}-4-[(1 1 1-trifluoropropan-2-yl)oxy]benzonitrile]
100 to 1000 | COc1cccc(-n2cc3c(n2)CCN(C(=O)c2c(OC(C)C(F)(F)F)ccc(C#N)c2Cl)C3)c1 (stereo not drawn) [Example 205, 2-Chloro-3-[2-(3-methoxyphenyl)-2H 4H 5H 6H 7H-pyrazolo[4,3-c]pyridine-5-carbonyl]-4-[(1 1 1-trifluoropropan-2-yl)oxy]benzonitrile]
100 to 1000 | COc1ccc(-n2cc3c(n2)CCN(C(=O)c2c(OC(C)C(F)(F)F)ccc(C#N)c2OC)C3)cc1 (stereo not drawn) [Example 207, 2-Methoxy-3-[2-(4-methoxyphenyl)-2H 4H 5H 6H 7H-pyrazolo[4,3-c]pyridine-5-carbonyl]-4-[(1 1 1-trifluoropropan-2-yl)oxy]benzonitrile]
100 to 1000 | CC(Oc1ccc(C#N)c(Cl)c1C(=O)N1CCc2c(cnn2C2CCCCC2)C1)C(F)(F)F (stereo not drawn) [Example 214, 2-Chloro-3-{1-cyclohexyl-1H 4H 5H 6H 7H-pyrazolo[4,3-c]pyridine-5-carbonyl}-4-[(1 1 1-trifluoropropan-2-yl)oxy]benzonitrile.]
< 100 | COc1c(C#N)ccc(OC(C)C(F)(F)F)c1C(=O)N1CCc2c(cnn2C2CCCCC2)C1 (stereo not drawn) [Example 215, 3-{1-Cyclohexyl-1H 4H 5H 6H 7H-pyrazolo[4,3-c]pyridine-5-carbonyl}-2-methoxy-4-[(1 1 1-trifluoropropan-2-yl)oxy]benzonitrile]
< 100 | COc1c(C#N)ccc(OC(C)C(F)(F)F)c1C(=O)N1CCc2nn(-c3ccncc3)cc2C1 (stereo not drawn) [Example 220, 2-Methoxy-3-[2-(pyridin-4-yl)-2H 4H 5H 6H 7H-pyrazolo[4,3-c]pyridine-5-carbonyl]-4-[(1 1 1-trifluoropropan-2-yl)oxy]benzonitrile]
100 to 1000 | COc1c(C#N)ccc(OC(C)C(F)(F)F)c1C(=O)N1CCc2c(cnn2C2CCOCC2)C1 (stereo not drawn) [Example 221, 2-Methoxy-3-[1-(oxan-4-yl)-1H 4H 5H 6H 7H-pyrazolo[4,3-c]pyridine-5-carbonyl]-4-[(1 1 1-trifluoropropan-2-yl)oxy]benzonitrile]
< 100 | Cc1cc(-n2cc3c(n2)CCN(C(=O)c2c(OC(C)C(F)(F)F)ccc(C#N)c2Cl)C3)ccn1 (stereo not drawn) [Example 226, 2-Chloro-3-[2-(2-methylpyridin-4-yl)-2H 4H 5H 6H 7H-pyrazolo[4,3-c]pyridine-5-carbonyl]-4-[(1 1 1-trifluoropropan-2-yl)oxy]benzonitrile]
100 to 1000 | COc1c(C#N)ccc(OC(C)C(F)(F)F)c1C(=O)N1CCc2nn(-c3ccc(Cl)cn3)cc2C1 (stereo not drawn) [Example 229, 3-[2-(5-Chloropyridin-2-yl)-2H 4H 5H 6H 7H-pyrazolo[4,3-c]pyridine-5-carbonyl]-2-methoxy-4-[(1 1 1-trifluoropropan-2-yl)oxy]benzonitrile]
